Experimental data: US20210292272A1, “Salts of Zuclomiphene” (Apotex Inc., priority 2020, published 2021)

Assays:
[1] = PXRD study of crystalline form stability of uncapped samples in a 40° C./75% RH stability chamber; format: physicochemical; conditions: at least 4 weeks
Method: PXRD diffractograms were recorded on a Bruker-AXS D8 Discover powder X-ray diffractometer (Bruker-AXS, Karlsruhe, Germany). The X-rays were generated using an Incoatec Micro-focus X-ray source (IpSTube: Cu tube with λ=1.54060 Å) with a voltage of 50 kV and current of 1.00 mA, using a micro mask 0.3 mm plug-in pinhole microslit and a short UBC 45 mm long collimator with a 0.3 mm diameter. For each sample, one frame was collected using a still scan with a Pilatus 3R-100K-A area detector at the distance of 154.72 mm from the sample. Raw data were evaluated using the program DIFFRAC.EVA (Bruker-AXS, Karlsruhe, Germany).

[2] = tested on: Men with Prostate Cancer on Androgen Deprivation Therapy; conditions: 50 mg of zuclomiphene citrate, interim Phase 2 results; cited from earlier work
[3] = Intrinsic dissolution rate (IDR) measurement, Wood apparatus; format: physicochemical; conditions: 900 mL distilled water, 37° C., 50 rpm
Method: Intrinsic dissolution rate (IDR) measurements were performed using a Wood apparatus (Pharma Test PT-DT8 instrument) having a bath temperature of 37° C. Samples were prepared by compressing 200-400 mg samples at 1.5 metric tons for 1 minute. A dissolution medium consisting of 900 mL distilled water, and rotation speed of 50 rpm, was used for each experiment.

Substance | change in the crystalline form (PXRD) [1] | moderate to severe hot flashes, change from baseline [2] | IDR (intrinsic dissolution rate) [3] [mg min^−1 cm^−2]
zuclomiphene fumarate [zuclomiphene fumarate Form APO-I] | no change in the crystalline form occurred | – | –
zuclomiphene phosphate [zuclomiphene phosphate Form APO-I] | no change in the crystalline form occurred | – | –
zuclomiphene sulphate [zuclomiphene sulphate Form APO-I] | no change in the crystalline form occurred | – | –
zuclomiphene citrate | – | statistically significant decrease | –
zuclomiphene succinate [zuclomiphene succinate Form APO-I] | no change in the crystalline form occurred | – | –
zuclomiphene L-tartrate [zuclomiphene L-tartrate Form APO-I] | no change in the crystalline form occurred | – | 2.37
zuclomiphene L-malate [zuclomiphene L-malate Form APO-I] | no change in the crystalline form occurred | – | 3.75
zuclomiphene tosylate [zuclomiphene tosylate Form APO-I] | no change in the crystalline form occurred | – | –
